According to patent US8697721B2, “Chromen-2-one derivatives and their use as monoamine neurotransmitter re-uptake inhibitors” (Aniona APS, priority 2009, dated 2014):
Structures can show the parent of a compound that is named as a salt.

Legend:
Assay type in all cases: biochemical
[1] = target: T1, noradrenaline (NA) reuptake in synaptosomes (Rattus norvegicus, UniProt Q63380); experiment: In vitro inhibition of 3H-NA reuptake in synaptosomes; details: mean ± spread (n), read-out: NA-uptake IC50
T1 construct: in synaptosomes as described in WO 97/16451; from tissue
T1 sequence (Q63380 1-617): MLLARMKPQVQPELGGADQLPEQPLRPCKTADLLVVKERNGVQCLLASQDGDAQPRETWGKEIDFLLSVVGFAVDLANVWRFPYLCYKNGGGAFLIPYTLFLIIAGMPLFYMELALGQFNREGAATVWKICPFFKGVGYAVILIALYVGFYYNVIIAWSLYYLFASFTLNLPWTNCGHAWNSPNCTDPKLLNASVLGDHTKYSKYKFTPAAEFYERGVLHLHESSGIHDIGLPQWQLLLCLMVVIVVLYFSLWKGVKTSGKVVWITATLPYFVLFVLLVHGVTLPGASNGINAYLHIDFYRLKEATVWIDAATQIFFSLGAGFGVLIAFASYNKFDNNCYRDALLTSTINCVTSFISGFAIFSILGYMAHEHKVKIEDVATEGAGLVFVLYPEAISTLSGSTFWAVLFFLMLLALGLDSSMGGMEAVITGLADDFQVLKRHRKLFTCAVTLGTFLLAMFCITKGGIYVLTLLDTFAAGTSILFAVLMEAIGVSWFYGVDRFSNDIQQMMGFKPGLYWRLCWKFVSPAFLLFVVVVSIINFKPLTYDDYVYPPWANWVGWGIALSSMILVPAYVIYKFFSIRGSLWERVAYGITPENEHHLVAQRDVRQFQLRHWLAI
Method: (§1) The compound was tested for its ability to inhibit the reuptake of the monoamine neurotransmitters dopamine (DA) noradrenaline (NA) and serotonine (5-HT) in synaptosomes as described in WO 97/16451.
(§2) The test values are given as IC50 (the concentration (μM) of the test substance which inhibits the specific binding of ^3H-DA, ^3H-NA, or ^3H-5-HT by 50%).

[2] = target: T2, serotonine (5-HT) reuptake in synaptosomes (Rattus norvegicus, UniProt P31652); experiment: In vitro inhibition of 3H-5-HT reuptake in synaptosomes; details: mean ± spread (n), read-out: 5-HT-uptake IC50
T2 construct: in synaptosomes as described in WO 97/16451; from tissue
T2 sequence (P31652 whole entry): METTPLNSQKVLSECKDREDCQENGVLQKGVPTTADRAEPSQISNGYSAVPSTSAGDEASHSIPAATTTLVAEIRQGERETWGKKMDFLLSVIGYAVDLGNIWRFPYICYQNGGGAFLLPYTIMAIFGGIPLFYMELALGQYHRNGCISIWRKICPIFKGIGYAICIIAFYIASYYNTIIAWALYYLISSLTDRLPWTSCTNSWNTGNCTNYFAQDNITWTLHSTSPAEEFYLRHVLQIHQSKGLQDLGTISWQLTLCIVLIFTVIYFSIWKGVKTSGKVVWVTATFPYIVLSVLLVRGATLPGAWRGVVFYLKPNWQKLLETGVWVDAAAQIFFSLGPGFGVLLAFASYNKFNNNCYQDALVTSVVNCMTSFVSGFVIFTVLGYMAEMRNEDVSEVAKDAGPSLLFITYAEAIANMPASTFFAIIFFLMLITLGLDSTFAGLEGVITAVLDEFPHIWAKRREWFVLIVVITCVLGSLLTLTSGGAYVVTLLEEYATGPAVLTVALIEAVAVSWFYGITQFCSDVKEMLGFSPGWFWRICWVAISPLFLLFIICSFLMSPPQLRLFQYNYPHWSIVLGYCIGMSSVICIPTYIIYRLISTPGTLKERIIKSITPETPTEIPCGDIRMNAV
Method: as §1, §2

[3] = target: T3, dopamine (DA) reuptake in synaptosomes (Rattus norvegicus, UniProt P23977); experiment: In vitro inhibition of 3H-DA reuptake in synaptosomes; details: mean ± spread (n), read-out: DA-uptake IC50
T3 construct: in synaptosomes as described in WO 97/16451; from tissue
T3 sequence (P23977 whole entry): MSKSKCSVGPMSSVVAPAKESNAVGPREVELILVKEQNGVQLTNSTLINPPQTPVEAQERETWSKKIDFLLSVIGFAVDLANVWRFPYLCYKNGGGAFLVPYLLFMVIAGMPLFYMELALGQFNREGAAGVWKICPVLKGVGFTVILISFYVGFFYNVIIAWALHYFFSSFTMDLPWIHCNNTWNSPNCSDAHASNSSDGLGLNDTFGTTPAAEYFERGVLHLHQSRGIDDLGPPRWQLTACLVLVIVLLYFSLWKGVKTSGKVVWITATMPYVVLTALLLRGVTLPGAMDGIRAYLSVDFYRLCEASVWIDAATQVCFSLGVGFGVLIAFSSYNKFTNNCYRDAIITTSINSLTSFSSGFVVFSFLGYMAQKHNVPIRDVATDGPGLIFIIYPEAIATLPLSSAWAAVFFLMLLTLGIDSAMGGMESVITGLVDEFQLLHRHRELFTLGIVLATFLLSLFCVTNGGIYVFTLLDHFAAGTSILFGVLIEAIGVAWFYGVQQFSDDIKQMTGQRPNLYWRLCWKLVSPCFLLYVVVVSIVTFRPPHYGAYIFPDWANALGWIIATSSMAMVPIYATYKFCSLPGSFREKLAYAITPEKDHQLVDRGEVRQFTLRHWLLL
Method: as §1, §2

With `Cc1cc2ccc(O[C@@H]3C[C@H]4CC[C@@H](C3)N4)cc2oc1=O` [Compound 1.1, exo-7-[(8-Aza-bicyclo[3.2.1]oct-3-yl)oxy]-3-methyl-chromen-2-one hydrochloric Acid Salt] the IC50 [1] was 11 ± 6.1 nM, the IC50 [2] was 0.76 nM and the IC50 [3] was 170 ± 21 nM.
